Ends that are not written are not given here.
What was measured:
[1] = tested on: urothelial tumor cell line T24; assay: Phage attachment to subconfluent cell monolayer; format: cell-based, human; details: 1x10^8 T.U. per well
Text: FIG. 7. Binding of selected phage clones to the human breast cancer cell line MDA-MBA435 (white bars) as well as the urothelial tumor cell lines T24 (light grey bars) and RT4 (dark grey bars). Insertless fd-tet phage were included as controls. Results are given as mean of triplicate wells relative to binding of fd-tet phage, that was set as 1. Input of phage was 1×10^8 T.U. per well. Bound phage were detected after intensive washing by infection with log phase K91 bacteria and plating of serial dilutions.
Binding of selected phage was examined with human adherent primary urothelial cells, the breast cancer cell line MDA-MB-435 and the transitional carcinoma cell lines RT4 and T24. All cells were grown to subconfluency in 48 well plates and free binding sites were blocked with 800 μl 30% FCS/DMEM (blocking medium) for 1 hour at 37° C. The blocking solution was then replaced by 200 μl 10% FCS/DMEM (washing medium) containing 1×10^8 cfu of each phage per well. After incubation for 2 hours at 4° C. to prevent unspecific endocytosis, unbound phage were removed by washing 7 times with 500 μl washing medium. For competition experiments increasing concentrations of the corresponding peptide or a control peptide (CARAC, SEQ ID NO:5) were added during the incubation. Bound phage were determined by infection with 500 μl log phase K91 culture and plating of serial dilutions. […]

[2] = tested on: human bone marrow cells; assay: Binding of single phage clones to bone marrow cells by BRASIL; format: cell-based; details: single phage clone; negative control fd-tet phage, positive control RGD-4C phage
Text: Fresh human ribs removed during surgery for access to underlying tumors were sectioned to expose the bone marrow surface. No significant damage to the bone marrow was inflicted to the tissue and the morphology was well preserved during after the procedure. The bone samples were washed (gently) 5 times with ice cold DMEM/0.15% BSA (sterile filtered). The marrow was removed by gently scraping cells from the bone. Cells were washed twice by centrifugation and resuspension in DMEM/BSA to remove debris and fat. Cells were resuspended in DMEM/BSA (about 10^7 cells per ml) and incubated with a phage display library (10^9 TU) prepared as described above. After incubation for 3 hours on ice, the cells were centrifuged through an organic phase consisting of a 9:1 mixture of dibutylphthalate:cyclohexane. Centrifugation occurred for 10 min at 10,000×g. The bottom of the centrifuge tube was snap frozen at −80° C. and phage were recovered by bacterial infection as described above. The selection was repeated for 3 more rounds of BRASIL and 90 clones were sequenced.
A system has been designed to analyze the data resulting from peptide library screenings, adapted from the SAS package. The system is available upon request from the M. D. Anderson Cancer Center. […] The positive control was phage containing an RGD-4C insert, which is known to bind to bone marrow. […]

[3] = tested on: porcine bladder mucosa; assay: Dot blot chamber assay after removal of the GAG-layer; format: cell-based; details: 0.1M HCl for 2 min; relative to untreated mucosa set to 1
Method: FIG. 10. Influence of the GAG-layer on phage binding. In the dot blot chamber assay portions of a porcine bladder mucosa were treated with 0.1M HCl for 2 min prior to remove the GAG-layer. Binding to treated surface is given relative to untreated surface, that was set as 1. Bound phage were detected after intensive washing by infection with log phase K91 bacteria and plating of serial dilutions.
(§1) Removal of the glucosaminoglycan- (GAG-) layer on intact mucosa samples was performed as a dot blot chamber assay. Half of the wells were incubated with 200 μl 0.1M HCl per well for 2 min, intensely rinsed with blocking solution and both parts blocked as before. Results are given relative to fd-tet phage to untreated mucosa, that was set to 1.
(§2) Using the same assay the influence of the glucosaminoglycan (GAG) layer on binding of several phage to intact mucosa was examined. The GAG-layer was removed as described above. Half of the mucosa of human ureter and porcine bladder specimens were treated inside the dot blot chamber with […] for 2 min, extensively washed and the binding assay performed as before.

[4] = tested on: human ureter mucosa; assay: as above; format: cell-based; details: human ureter sample
Method: as §1, §2

[5] = tested on: leptin; details: cited from earlier work
[6] = target: BSA (bovine serum albumin) (bovine, UniProt P02769 25-607); assay: phage binding to immobilized protein, recovery by bacterial infection
Chain of BSA (bovine serum albumin) (P02769 25-607 limits assumed): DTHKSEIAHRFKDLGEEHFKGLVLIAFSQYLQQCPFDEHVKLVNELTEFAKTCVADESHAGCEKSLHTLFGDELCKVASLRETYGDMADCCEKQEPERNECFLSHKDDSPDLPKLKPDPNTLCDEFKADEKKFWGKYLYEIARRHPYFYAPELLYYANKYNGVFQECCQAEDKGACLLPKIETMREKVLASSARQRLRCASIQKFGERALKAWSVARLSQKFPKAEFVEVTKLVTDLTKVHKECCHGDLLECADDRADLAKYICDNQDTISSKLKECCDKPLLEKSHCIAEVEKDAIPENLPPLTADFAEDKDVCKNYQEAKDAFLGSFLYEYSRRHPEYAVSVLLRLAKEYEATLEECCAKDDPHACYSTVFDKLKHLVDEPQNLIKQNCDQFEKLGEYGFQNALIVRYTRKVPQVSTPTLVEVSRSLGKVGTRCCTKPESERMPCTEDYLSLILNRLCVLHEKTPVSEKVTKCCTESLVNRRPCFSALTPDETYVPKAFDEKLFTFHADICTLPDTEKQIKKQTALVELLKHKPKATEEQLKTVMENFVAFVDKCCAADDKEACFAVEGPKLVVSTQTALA

[7] = target: T1, recombinant rat NRP-1/Fc (rat; human, UniProt Q9QWJ9 22-854, limits assumed); assay: phage binding to immobilized receptor, recovery by bacterial infection
T1 construct: Bought receptor/Fc chimera; also called rat Neuropilin-1; neuropilin-1; not shown: Fc region of human IgG1
T1 sequence (looked up): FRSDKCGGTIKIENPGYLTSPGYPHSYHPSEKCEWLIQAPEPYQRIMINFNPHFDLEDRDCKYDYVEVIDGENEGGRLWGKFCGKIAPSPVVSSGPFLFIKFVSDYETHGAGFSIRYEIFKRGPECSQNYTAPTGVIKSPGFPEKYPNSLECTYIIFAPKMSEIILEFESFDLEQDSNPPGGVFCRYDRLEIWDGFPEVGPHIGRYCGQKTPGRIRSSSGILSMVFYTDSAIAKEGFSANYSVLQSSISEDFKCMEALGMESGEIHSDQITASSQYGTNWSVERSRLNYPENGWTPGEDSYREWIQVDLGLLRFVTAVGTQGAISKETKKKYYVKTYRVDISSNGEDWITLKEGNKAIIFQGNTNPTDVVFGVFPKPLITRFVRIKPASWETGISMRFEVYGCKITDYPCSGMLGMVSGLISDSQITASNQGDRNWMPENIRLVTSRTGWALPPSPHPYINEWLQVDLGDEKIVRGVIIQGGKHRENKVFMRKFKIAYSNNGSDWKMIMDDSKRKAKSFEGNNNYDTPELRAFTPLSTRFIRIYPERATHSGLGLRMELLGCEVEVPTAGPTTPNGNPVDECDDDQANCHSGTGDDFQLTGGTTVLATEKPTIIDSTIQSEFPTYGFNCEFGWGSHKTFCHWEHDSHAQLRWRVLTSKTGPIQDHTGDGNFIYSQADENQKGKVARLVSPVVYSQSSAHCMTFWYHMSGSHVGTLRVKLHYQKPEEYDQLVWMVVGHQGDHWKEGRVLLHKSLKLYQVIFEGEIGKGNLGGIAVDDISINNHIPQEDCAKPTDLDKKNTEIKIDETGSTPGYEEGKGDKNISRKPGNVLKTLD
Method: (§3) Human VEGFR-1, human VEGFR-2, rat NRP-1, and rat NRP-2 (1 μg in 50 μl of PBS) were immobilized on microtiter well plates overnight at 4° C. The wells were washed twice with PBS, blocked with PBS containing 3% BSA for 2 h at room temperature, and then incubated with 10⁹ TU of either […] […] (SEQ ID NO:11) phage, or fd-tet phage in 50 μl of PBS/1.5% BSA. After 1 hr at room temperature, wells were washed nine times with PBS and phage were recovered by bacterial infection. Serial dilutions were plated onto Luria-Bertani (LB) medium supplemented with tetracycline. VEGF₁₆₅, PDGF-BB, or synthetic peptides were used at the indicated concentrations and pre-incubated with the immobilized proteins to evaluate competitive inhibition of phage binding.

[8] = target: T2, recombinant human VEGFR-2/Fc (human, UniProt P35968 20-764); assay: as above
T2 construct: Bought receptor/Fc chimera; not shown: Fc region of human IgG1
T2 sequence (P35968 20-764 limits assumed): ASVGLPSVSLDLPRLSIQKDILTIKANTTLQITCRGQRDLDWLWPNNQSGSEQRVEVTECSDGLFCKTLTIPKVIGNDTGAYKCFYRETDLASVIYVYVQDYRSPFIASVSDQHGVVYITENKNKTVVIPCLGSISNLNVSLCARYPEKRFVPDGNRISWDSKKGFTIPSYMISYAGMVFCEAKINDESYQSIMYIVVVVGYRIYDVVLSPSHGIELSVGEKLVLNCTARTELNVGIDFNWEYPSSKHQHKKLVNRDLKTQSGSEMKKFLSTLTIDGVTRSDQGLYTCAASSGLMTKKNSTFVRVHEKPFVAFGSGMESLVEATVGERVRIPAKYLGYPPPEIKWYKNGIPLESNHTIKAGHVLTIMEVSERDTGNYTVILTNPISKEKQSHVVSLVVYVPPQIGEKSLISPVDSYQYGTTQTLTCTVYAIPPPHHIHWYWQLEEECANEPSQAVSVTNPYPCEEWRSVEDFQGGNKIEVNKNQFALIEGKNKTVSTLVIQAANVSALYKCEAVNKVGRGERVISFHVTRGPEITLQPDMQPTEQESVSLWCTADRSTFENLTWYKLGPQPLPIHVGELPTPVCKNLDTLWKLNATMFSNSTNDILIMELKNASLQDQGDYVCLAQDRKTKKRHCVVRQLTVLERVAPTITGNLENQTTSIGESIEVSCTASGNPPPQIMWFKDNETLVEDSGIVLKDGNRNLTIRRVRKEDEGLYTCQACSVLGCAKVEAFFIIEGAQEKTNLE
Method: as §3

[9] = target: T3, recombinant rat NRP-2/Fc (rat; human, UniProt O35276 23-858, limits assumed); assay: as above
T3 construct: Bought receptor/Fc chimera; also called neutropilin-2 (NRP-2) receptor; not shown: Fc region of human IgG1
T3 sequence (looked up): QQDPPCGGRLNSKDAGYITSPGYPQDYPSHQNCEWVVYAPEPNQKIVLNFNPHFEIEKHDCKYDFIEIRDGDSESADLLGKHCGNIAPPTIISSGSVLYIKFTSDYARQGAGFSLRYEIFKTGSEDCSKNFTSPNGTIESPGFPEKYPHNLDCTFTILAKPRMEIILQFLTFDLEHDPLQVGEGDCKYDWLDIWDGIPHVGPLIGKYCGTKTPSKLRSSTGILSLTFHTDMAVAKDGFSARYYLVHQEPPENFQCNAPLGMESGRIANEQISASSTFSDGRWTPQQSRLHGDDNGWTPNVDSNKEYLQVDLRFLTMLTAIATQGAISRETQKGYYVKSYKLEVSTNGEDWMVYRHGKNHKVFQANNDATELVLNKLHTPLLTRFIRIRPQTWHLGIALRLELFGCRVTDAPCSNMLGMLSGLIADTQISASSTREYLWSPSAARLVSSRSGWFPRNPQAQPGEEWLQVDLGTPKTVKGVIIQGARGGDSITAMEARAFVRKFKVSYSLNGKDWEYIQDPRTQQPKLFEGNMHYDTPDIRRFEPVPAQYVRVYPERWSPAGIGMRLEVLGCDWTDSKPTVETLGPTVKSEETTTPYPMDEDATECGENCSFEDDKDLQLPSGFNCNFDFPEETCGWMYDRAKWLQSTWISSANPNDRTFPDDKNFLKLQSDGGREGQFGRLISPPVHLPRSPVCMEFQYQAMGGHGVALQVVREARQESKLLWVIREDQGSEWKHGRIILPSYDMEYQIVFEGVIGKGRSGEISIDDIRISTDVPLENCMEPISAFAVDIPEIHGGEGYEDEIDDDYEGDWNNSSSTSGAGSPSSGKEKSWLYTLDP
Method: as §3

[10] = target: T4, recombinant human VEGFR-1 (human, UniProt P17948 27-758, limits assumed); assay: phage binding to immobilized receptor, against insertless fd-tet phage (not shown)
T4 construct: Bought; immobilized on microtiter wells (1 ug in 50 ul PBS); also called Flt1
T4 sequence (P17948 27-758 limits assumed): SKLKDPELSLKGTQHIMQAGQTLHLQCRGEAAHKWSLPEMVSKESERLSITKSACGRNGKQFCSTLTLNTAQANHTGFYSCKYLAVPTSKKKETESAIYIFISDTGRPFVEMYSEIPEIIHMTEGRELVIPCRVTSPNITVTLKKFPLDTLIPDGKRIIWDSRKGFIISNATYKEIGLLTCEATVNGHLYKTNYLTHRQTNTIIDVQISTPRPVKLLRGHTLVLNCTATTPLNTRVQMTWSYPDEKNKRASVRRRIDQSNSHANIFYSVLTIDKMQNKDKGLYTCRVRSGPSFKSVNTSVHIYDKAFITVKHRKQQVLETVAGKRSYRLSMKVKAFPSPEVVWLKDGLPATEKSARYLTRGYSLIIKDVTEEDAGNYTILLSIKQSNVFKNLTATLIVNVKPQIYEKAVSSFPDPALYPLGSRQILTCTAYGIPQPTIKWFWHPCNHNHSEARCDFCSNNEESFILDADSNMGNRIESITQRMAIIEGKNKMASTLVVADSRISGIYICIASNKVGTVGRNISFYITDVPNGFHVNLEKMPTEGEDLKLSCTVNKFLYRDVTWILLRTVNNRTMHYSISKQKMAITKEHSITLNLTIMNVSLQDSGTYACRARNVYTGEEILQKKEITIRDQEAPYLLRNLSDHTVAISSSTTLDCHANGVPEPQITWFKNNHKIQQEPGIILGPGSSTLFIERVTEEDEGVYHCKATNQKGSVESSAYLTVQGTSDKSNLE
Method: as §3

Molecule: CGQEISGLC
- binding to T24 tumor cells [1]: bound

Molecule: CLGWRAAAC
- binding to human bone marrow cells [2]: over twice as high as the positive control

Molecule: CWGGLSGLC
- increase of phage binding after GAG-removal [3]: 4.2 fold
- increase of phage binding after GAG-removal [4]: 3.4 fold

Molecule: DLLHLLAFSKSCSLLP
- leptin activity in vivo [5]: block leptin activity

B1: phage clone-19 displaying the peptide CPQPRPLC (SEQ ID NO:6) (peptide)
peptide: CPQPRPLC
modifications: not fully specified (bridges); cysteine pairing not given here; also: displayed on pIII of filamentous phage
notes: Tested as whole filamentous phage (10^9 TU per well), not as free peptide; The peptide is expressed in the pIII protein; also called clone 19 phage; not shown: The phage pIII coat protein that carries the insert, and the residues flanking the insert
- binding result [6]: no binding (tested: 10^9 TU of phage in 50 ul)
- binding result [7]: binds
- binding result [8]: no binding (tested: 10^9 TU of phage in 50 ul)
- binding result [9]: no binding (tested: 10^9 TU of phage in 50 ul)
- fold enrichment of binding over fd-tet phage [10]: > 1000 fold

From patent US20080176792A1, “VEGFR-1 TARGETING PEPTIDES” (priority 2000, published 2008)
